BindingDB's records for patent US12440484 (Chong Kun Dang Pharmaceutical, 2025)

Legend:
Histone deacetylase 6 = molecular target: T1, Histone deacetylase 6 (Homo sapiens, UniProt Q9UBN7); test: Identification of HDAC Enzyme Activity Inhibition (In Vitro)
T1 sequence (Q9UBN7 whole entry): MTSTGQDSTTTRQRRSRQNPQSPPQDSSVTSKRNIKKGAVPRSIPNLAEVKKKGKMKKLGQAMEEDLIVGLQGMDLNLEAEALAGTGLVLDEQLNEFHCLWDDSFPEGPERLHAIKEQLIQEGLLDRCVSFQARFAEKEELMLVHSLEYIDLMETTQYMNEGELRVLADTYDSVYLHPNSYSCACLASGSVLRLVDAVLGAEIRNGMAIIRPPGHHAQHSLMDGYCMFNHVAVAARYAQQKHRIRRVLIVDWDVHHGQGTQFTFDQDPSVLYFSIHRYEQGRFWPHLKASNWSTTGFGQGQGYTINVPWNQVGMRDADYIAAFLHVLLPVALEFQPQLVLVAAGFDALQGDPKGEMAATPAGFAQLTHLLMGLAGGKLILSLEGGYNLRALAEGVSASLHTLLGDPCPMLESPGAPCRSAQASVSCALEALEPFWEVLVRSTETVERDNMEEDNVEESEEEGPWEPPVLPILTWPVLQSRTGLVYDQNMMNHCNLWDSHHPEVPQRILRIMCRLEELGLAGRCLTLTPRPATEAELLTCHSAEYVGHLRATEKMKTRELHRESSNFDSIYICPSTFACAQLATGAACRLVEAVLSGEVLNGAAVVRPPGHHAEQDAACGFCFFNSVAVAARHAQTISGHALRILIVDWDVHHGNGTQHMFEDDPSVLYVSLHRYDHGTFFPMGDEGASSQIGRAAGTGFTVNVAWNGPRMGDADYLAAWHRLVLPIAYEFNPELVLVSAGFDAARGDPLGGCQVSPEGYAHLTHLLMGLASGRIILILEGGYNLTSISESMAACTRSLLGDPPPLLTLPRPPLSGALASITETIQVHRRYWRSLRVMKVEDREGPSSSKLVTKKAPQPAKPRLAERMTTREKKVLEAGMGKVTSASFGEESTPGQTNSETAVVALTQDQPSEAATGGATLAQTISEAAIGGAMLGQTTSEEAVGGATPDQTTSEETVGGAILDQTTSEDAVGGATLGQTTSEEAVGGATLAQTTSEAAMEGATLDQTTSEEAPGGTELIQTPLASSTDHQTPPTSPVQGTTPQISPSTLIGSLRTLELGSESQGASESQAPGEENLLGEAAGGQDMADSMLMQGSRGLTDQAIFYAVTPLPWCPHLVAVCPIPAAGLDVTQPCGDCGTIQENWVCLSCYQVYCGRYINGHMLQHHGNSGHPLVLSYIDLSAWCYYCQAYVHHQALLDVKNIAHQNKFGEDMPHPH
Description: (§1) For a HDAC1 assay, samples were treated at a concentration of 100, 1000 and 10000 nM. For a HDAC6 assay, samples were treated at a concentration of 0.1, 1, 10, 100 and 1000 nM.

Histone deacetylase 1 = Histone deacetylase 1 (Homo sapiens, UniProt Q13547); test: as above
Description: as §1

Sequence of Histone deacetylase 1 (Q13547 whole entry): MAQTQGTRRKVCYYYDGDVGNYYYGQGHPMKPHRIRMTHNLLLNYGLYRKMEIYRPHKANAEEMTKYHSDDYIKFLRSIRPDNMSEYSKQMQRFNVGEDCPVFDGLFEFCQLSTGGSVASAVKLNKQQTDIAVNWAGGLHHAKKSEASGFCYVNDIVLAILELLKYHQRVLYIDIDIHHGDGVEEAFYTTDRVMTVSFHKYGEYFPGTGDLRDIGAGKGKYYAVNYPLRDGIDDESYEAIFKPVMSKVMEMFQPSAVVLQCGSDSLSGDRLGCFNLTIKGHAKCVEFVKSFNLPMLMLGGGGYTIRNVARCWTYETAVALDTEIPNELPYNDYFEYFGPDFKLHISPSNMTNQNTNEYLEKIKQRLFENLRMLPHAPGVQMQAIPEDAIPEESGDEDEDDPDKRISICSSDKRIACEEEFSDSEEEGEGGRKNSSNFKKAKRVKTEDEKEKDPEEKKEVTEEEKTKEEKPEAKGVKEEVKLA

Row | Structure (SMILES) | IC50 (Histone deacetylase 6) | IC50 (Histone deacetylase 1)
1 | CC1(C)C(=O)N(Cc2ccc(-c3nnc(C(F)F)o3)cn2)C(=O)c2ccc(N3CCCCC3)cc21 [US12440484, Compound 27] | 43 nM | > 10000 nM
2 | O=c1c2ccccc2n(CCN2CCCCC2)c(=O)n1Cc1ccc(-c2nnc(C(F)F)o2)cc1F [US12440484, Compound 10] | 455 nM | > 10000 nM
3 | CC1(C)C(=O)N(Cc2ccc(-c3nnc(C(F)F)o3)cn2)C(=O)c2ccc(N3CCN(CC(F)(F)F)CC3)cc21 [US12440484, Compound 141] | 52 nM | > 10000 nM
4 | COCCN1CCC(c2ccc3c(c2)C(=O)N(Cc2ccc(-c4nnc(C(F)F)o4)cn2)C(=O)C3(C)C)CC1 [US12440484, Compound 151] | 33 nM | > 10000 nM
